1 compound from US7960549B2, “Solid forms of a chemokine receptor antagonist and methods of use thereof” (priority 2004, dated 2011) can be followed below.

Molecules are shown by their SMILES. Structures can show the parent of a compound that is named as a salt.

Common to all, as to assay type: physicochemical
Data set [1] is described as follows: Thermal gravimetric analysis (TGA). As to the method: Measurements utilizing thermal gravimetric analysis (TGA) are carried out on a T.A. instruments TGAQ500 analyzer. Mass calibration is performed with 10 and 100 mg certified masses. Temperature calibration is performed with Alumel® and nickel standards (Curie points of respectively 154° C. and 354° C.). Samples are exposed to a constant nitrogen stream of 60 ml/min, and temperature ranges from room temperature to 350° C. at a 5° C./min rate. The quantity of product tested is between 2 and 13 mg. The sample is deposited in an open aluminum sample pan, which is itself placed in a platinum pan. The temperatures identified from TGA scans of a particular sample are accurate to within ±3° C. Simultaneous TGA and DSC measurements are carried out using a […] thermal analysis system produced by the […] corporation. A liquid nitrogen cooling system makes it possible to work at temperatures below 20° C. The emitted gases, upon sample heating, are carried by a transfer capillary tube to a Pfeiffer mass spectrometer, the capillary tube heated to 150° C. The mass spectrometer can analyze molecular fragments at <<m/e>> ratios between 1 and 200 uma. A sample with a mass between 1 and 27 mg is contained in an open concave aluminum sample pan (75 μL capacity) exposed to a nitrogen stream. The sample is heated at a rate of 1 or 5° C./min.

A short description of data set [2]: Water sorption/desorption cycling (dynamic vapor sorption, DVS) at 25° C., with XRPD before and after. The note with it: 25° C. On the procedure: Water sorption measurements are performed on a DVS-1 automated gravimetric vapor sorption analyser (Surface Measurement Systems Ltd., London, UK). The DVS-1 measures the uptake and loss of vapor gravimetrically using a Cahn D200 recording ultra-microbalance with a mass resolution of ±0.1 μg. The relative humidity around the sample is controlled by mixing saturated and dry carrier gas streams using mass flow controllers. The temperature is maintained within ±0.1° C. by enclosing the entire system in a temperature-controlled incubator. A sample size between 15 and 20 mg is used. In general, the error in % (w/w) identified in a tested sample is ±0.1% (w/w).
Two protocols are utilized to operate the DVS. In one protocol, a sample is dried at 0% relative humidity (RH) to remove any surface water present and establish a dry, baseline mass. Next, the sample is exposed to the following relative humidity profile: 0%, 10%, 20%, 30%, 40%, 50%, 60%, 70%, 80%, 90%, 80%, 70%, 60%, 50%, 40%, 30%, 20%, 10%, 0%. In some instances, this profile is repeated, yielding 4 sets of data going up and down in RH. In another protocol, the sample is first equilibrated at 40% RH, then it was exposed to the following relative humidity profile: 40%, 50%, 60%, 70%, 80%, 90%, 100%, 90%, 80%, 70%, 60%, 50% 40% 30%, 20% 10%, 0%, 10%, 20%, 30%, 40%. […] If equilibrium state is not reached, the change in relative humidity took place automatically after 360 or 600 minutes. From the complete moisture sorption and desorption profile, an isotherm is calculated using the DVS Advanced Analysis Suite v3.6. All experiments were performed at 25° C.

The nature of data set [3]: Controlled temperature (isothermal) X-ray powder diffraction: thermal stability of the crystalline form. As to conditions: isothermal scans at intervals of 10° C. As to the method: X-ray powder diffraction (XRPD) is performed on various samples of the Citrate Salt using one of three instruments. XRPD measurements with Instrument 1 utilize a Siemens-Bruker D5000 Matic powder diffractometer with a Bragg-Brentano (vertical θ-2θ configuration) parafocusing geometry. X-rays are produced from a sealed cobalt anode running at 40 kV and 30 mA. Two lines are typically emitted: CoKα1 (λ=1.7890 Å) and CoKα2 (λ=1.7929 Å). An iron β-filter limits the CoKβ (λ=1.6208 Å) radiation to about 1% of the diffracted beam at the detector. The primary beam passes through a parallel plate collimator (0.2 mm Soller slits), then through a divergence slit (0.2 mm). Diffracted X-rays are detected with a Braun 50 M multichannel linear detector having a 10°-wide detection window in angle 2θ. Scans are performed from 1.5° to 50.0° in 2θ, the scan time being 10 to 40 seconds per degree in 2θ. The error in the 2θ locations are typically within ±0.10 degrees.
In Instrument 3, XRPD measurements are performed at different temperatures to elucidate the evolution of crystal structure with temperature. Tests are carried out with a Siemens-Bruker D5000 diffractometer equipped with the Bragg Brentano parafocusing (θ-θ) geometry and an Anton-Paar TTK temperature chamber. Measurements utilize dry nitrogen or nitrogen streams having a particular humidity. The instrument specifications are substantially similar to the Siemens-Bruker D5000 Matic instrument described above (Instrument 1). Temperature is allowed to rise at a rate of 0.05° C./sec. Scans are recorded under the following conditions: a 1.5 to 50.0 degree scan in angle 2θ, 10 to 20 seconds counting time per degree in 2θ. Data are acquired in isotherm mode when the requested temperature is reached.

Data set [4] in a line: Prolonged exposure to fixed relative humidity or rinsing with water, XRPD before and after. As to conditions: week long exposure; ambient temperature.
A short description of data set [5]: Differential scanning calorimetry (DSC). On the procedure: Differential scanning calorimetry (DSC) analyses are performed using a T.A Instruments Q1000 thermal analyser. Analyses are carried out using nitrogen purge gas flowing at an average rate of 50 ml/min. A mechanical compressor cools the system, and equilibrates the instruments being used at ambient temperature between analyses. […] Energy calibration is performed with a certified indium calibrator (melting enthalpy of 28.45 J/g), applying a heating rate of 5° C./min. The temperatures identified from DSC scans of a particular sample are accurate to within ±3° C. […] Modulated temperature differential scanning calorimetry (MTDSC) is also used since deconvolution of the total heat flow into reversing and non-reversing heat flows allows the transitions to be easily identified. The samples were submitted to the same experimental temperature program: after the equilibration of the sample at −5° C., the samples were heated through a modulated program from −5° C. to 210° C. at a rate of 1° C./min. […] Experiments are performed using crimped aluminium sample pans or open pans in some cases. The quantity of product analysed is typically between 2 and 13 mg.
On the technique in general: In DSC, transitions show as peaks or steps in heat flow.

Where [6] appears, read: heating rate 5° C./min, sample of the single form (Form H formed from Form E sample), ±3° C.
[7] abbreviates: heating rate 5° C./min, A, B, H: melting/decomposition, E: loss of water and conversion to Form H, ±3° C.
[8] abbreviates: mixture of Forms A and D, 0.3° C./min, Form D: conversion to Form A, Form A: melting/decomposition.
The mark [9] stands for this setting: sample including Forms A and C, 5° C./min, Form C: conversion to Form A, Form A: melting/decomposition.

In the case of `CC(C)(O)c1ccc2c(c1)/C(=C/CCN1CC[C@](O)(c3ccc(Cl)cc3)C(C)(C)C1)c1cccnc1CO2` [Form A, citrate salt of (S)-4-(4-Chloro-phenyl)-1-{3-[7-(1-hydroxy-1-methyl-ethyl)-11H-10-oxa-1-aza-dibenzo[a,d]cyclohepten-5-ylidene]-propyl}-3,3-dimethyl-piperidin-4-ol], the “TGA weight loss from ambient temperature to about 100° C.” value in data set [1] (heating rate 5° C./min) is “about 0.23 % (w/w)”. Further, the “TGA weight loss of the transition” value in data set [1] (heating rate 5° C./min, sample of the single form (Form H formed from Form E sample)) is “about 27.5 % (w/w)”. Moreover, the “TGA weight loss transition, interpolated beginning temperature” value in data set [1] (setting [6]) is “about 164 °C”. Besides, the “TGA weight loss transition, temperature of maximum rate of weight loss” value in data set [1] (setting [6]) stood at 183 °C. For the same compound, in data set [1] (sample including Forms A and C), the TGA weight loss is reported as 21.9 % (w/w). Besides, the “TGA weight loss, temperature of maximum rate of weight loss” value in data set [1] (sample including Forms A and C) was determined as 183 °C. Moreover, the “TGA weight loss, interpolated beginning temperature” value in data set [1] (sample including Forms A and C, Form C: conversion away from Form C, Form A: decomposition/melting) turned out to be 168 °C. Besides, in data set [2], the “change in moles of water per mole of anhydrous crystal over relative humidity 0% to 90%” value was “about 0.8 moles of water per mole of anhydrous crystal”. For the same compound, the “change in mass as the relative humidity is changed between 0% and 90%” value in data set [2] (dry crystal basis, known to within ±0.1%) was “about 1.9%”. For the same compound, the “XRPD before and after water sorption/desorption cycling” value in data set [2] (two consecutive cycles, 0% to 90% relative humidity) is “no structural change”. Also, the “decomposition/melting observed with controlled temperature X-ray powder diffraction” value in data set [3] was “above 170 °C”. The “crystal form by XRPD after exposure to a relative humidity of 97.5%” value in data set [4] was “does not change form”. Besides, the “DSC endothermic transition, Tmax” value in data set [5] (heating rate 1° C./min) was found to be 167 °C; in data set [5] (setting [7]) it was 176 °C; in data set [5] (setting [8]), 166 °C; in data set [5] (setting [9]) it was 178 °C. The “DSC endothermic transition, interpolated beginning temperature” value in data set [5] (heating rate 1° C./min) is 164 °C; in data set [5] (setting [7]), 169 °C; in data set [5] (setting [8]), “about 160 °C”; in data set [5] (setting [9]), “about 173 °C”.
